# Patent publication US10058534B2, “Benzothiophene derivatives and compositions thereof as selective estrogen receptor degraders” (NOVARTIS AG, priority 2013, dated 2018)
# Where two headings read alike, the source gives them in different places.
# How the values were obtained:
# [1] = target: ERα (Homo sapiens (Human), UniProt P03372); test: ERα degradation (MCF7 cells), in-cell Western; type: cell-based; conditions: for IC50: inflection point of the degradation in response to ligand concentration; for IC50 / % ERα remaining: MCF7 cells; for % ERα remaining: remaining ERα protein at 10 μM ligand, relative to DMSO control; for ER Percentage remaining: degradation potential, comparison of linker length between phenyl and -C(O)OH
# ERα, sequence (P03372 whole entry): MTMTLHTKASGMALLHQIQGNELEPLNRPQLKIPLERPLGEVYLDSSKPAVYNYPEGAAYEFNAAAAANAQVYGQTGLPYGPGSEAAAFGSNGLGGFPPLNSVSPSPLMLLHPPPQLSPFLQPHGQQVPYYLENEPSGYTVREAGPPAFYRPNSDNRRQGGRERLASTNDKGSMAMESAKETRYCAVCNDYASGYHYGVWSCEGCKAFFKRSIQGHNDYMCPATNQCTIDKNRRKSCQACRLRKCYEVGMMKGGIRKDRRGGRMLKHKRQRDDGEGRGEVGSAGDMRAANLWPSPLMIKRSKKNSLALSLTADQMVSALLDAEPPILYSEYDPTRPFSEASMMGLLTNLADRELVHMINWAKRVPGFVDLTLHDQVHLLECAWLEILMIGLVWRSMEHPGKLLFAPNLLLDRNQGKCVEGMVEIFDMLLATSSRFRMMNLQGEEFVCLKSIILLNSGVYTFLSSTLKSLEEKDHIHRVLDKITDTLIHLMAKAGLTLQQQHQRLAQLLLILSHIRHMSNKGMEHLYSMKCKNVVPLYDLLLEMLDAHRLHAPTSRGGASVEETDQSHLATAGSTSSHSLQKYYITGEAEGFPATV
# Experimental: ERα Degradation (MCF7 Cells)
# (§1) The column titled MCF7 IC50 reports the inflection point of the inhibition of transcription in MCF7 cells as described above. Percentage ERα remaining reports the remaining ERα protein measured at 10 μM concentration of the ligand as described above. The column ERα IC50 reports the inflection point of the degradation in response to the ligand concentration.
# [2] = target: ER (endogenous, MCF7 cells) (Homo sapiens (Human), UniProt P03372); test: ER transcription assay (MCF7 cells), ERE-luciferase reporter; type: cell-based
# ER (endogenous, MCF7 cells), sequence (P03372 whole entry): as above
# Excerpt: ER Transcription Assay (MCF7 Cells)
# The ER transcription assay is a reporter assay that is based on the ability of ER to induce transcription from a luciferase reporter gene containing estrogen response elements (EREs) in the promoter/enhancer region. When the reporter gene is transfected in MCF7 cells (containing endogenous ER), transcription is reflected by the level of luciferase expression.
# A day before transfection, cells are split into a T75 flask at a cell density of 300,000 cells/mL (10 mL total) and allowed to attach overnight in a humidified CO2 incubator at 37° C.
# Approximately 20 ug DNA is mixed in OptiMEM (Invitrogen) to a total volume of 650 μL. Following incubation, the OptiMEM-DNA mixture is added to the OptiMEM-Lipofectin mix and incubated for 15 minutes at 37° C. The DNA-Lipofectin mixture is then added directly to the T75 flask and the flask is returned to the incubator.
# Normally, DMSO (used as a vehicle) is included to achieve a final concentration of 0.1% when added to the cells. Transfected cells are trypsinized, resuspended in DMEM/F12/10% charcoal-stripped serum and added to the 96-well plate at 25,000 cells/well in 90 μL of media. The plate is then returned to the incubator for 24 hours.
# After incubation with compounds for 24 hours, Firefly and Renilla luciferase activities are measured to determine ER transcriptional activity. Media is removed from 96-well plates by decanting and blotting on paper towels.
# One second total read time after a one second delay.
# One second total read time after one second delay. If Firefly luciferase signal is high, Renilla assay must be done an hour after the Firefly assay due to incomplete squelching of Firefly signal.
# as §1
# [3] = inflection point of the inhibition of transcription in MCF7 cells, 0.1 nM estradiol, 24 hours, read-out: MCF7 IC50
# [4] = antagonist activity, comparison of linker length between phenyl and -C(O)OH, read-out: SERD IC50 MCF7
SMILES,IC50 [1],% ERα remaining [1],"IC50 [2, 3]",ER Percentage remaining [1],"IC50 [2, 4]"
"CC(F)(F)c1ccccc1-c1sc2cc(O)ccc2c1Oc1ccc(/C=C/C(=O)O)cc1 [Example 122, (E)-3-(4-((2-(2-(1,1-difluoroethyl)phenyl)-6-hydroxybenzo[b]thiophen-3-yl)oxy)phenyl)acrylic acid]",0.2 nM,15%,11 nM,,
"O=C(O)/C=C/c1ccc(Oc2c(-c3ccccc3C3COC3)sc3cc(O)ccc23)cc1 [Example 123, (E)-3-(4-((6-hydroxy-2-(2-(oxetan-3-yl)phenyl)benzo[b]thiophen-3-yl)oxy)phenyl)acrylic acid]",1.1 nM,15%,83 nM,,
"Cc1cccc(C(C)C)c1-c1sc2cc(O)ccc2c1Oc1ccc(/C=C/C(=O)O)cc1 [Example 124, (E)-3-(4-((6-hydroxy-2-(2-isopropyl-6-methylphenyl)benzo[b]thiophen-3-yl)oxy)phenyl)acrylic acid]",1.4 nM,10%,114 nM,,
"CN(C)c1ccccc1-c1sc2cc(O)ccc2c1Oc1ccc(/C=C/C(=O)O)cc1 [Example 125, (E)-3-(4-((2-(2-(dimethylamino)phenyl)-6-hydroxybenzo[b]thiophen-3-yl)oxy)phenyl)acrylic acid]",,11%,124 nM,,
"O=C(O)/C=C/c1ccc(Oc2c(-c3ccccc3C3CC3)sc3cc(O)ccc23)cc1 [Example 127, (E)-3-(4-((2-(2-cyclopropylphenyl)-6-hydroxybenzo[b]thiophen-3-yl)oxy)phenyl)acrylic acid]",4.2 nM,16%,208 nM,,
"COc1ccc(-c2sc3cc(O)ccc3c2Oc2ccc(/C=C/C(=O)O)cc2)c(C)n1 [Example 129, (E)-3-(4-((6-hydroxy-2-(6-methoxy-2-methylpyridin-3-yl)benzo[b]thiophen-3-yl)oxy)phenyl)acrylic acid]",,22%,297 nM,,
"Cc1occc1-c1sc2cc(O)ccc2c1Oc1ccc(/C=C/C(=O)O)cc1 [Example 131, (E)-3-(4-((6-hydroxy-2-(2-methylfuran-3-yl)benzo[b]thiophen-3-yl)oxy)phenyl)acrylic acid]",,12%,815 nM,,
"C#Cc1ccccc1-c1sc2cc(O)ccc2c1Oc1ccc(/C=C/C(=O)O)cc1 [Example 132, (E)-3-(4-((2-(2-ethynylphenyl)-6-hydroxybenzo[b]thiophen-3-yl)oxy)phenyl)acrylic acid]",,16%,890 nM,,
"Cn1ccc2c(-c3sc4cc(O)ccc4c3Oc3ccc(/C=C/C(=O)O)cc3)cccc21 [Example 133, (E)-3-(4-((6-hydroxy-2-(1-methyl-1H-indol-4-yl)benzo[b]thiophen-3-yl)oxy)phenyl)acrylic acid]",,17%,898 nM,,
"COc1ccc(-c2sc3cc(O)ccc3c2Oc2ccc(/C=C/C(=O)O)cc2)c(C(C)C)c1 [Example 134, (E)-3-(4-((6-hydroxy-2-(2-isopropyl-4-methoxyphenyl)benzo [b]thiophen-3-yl)oxy)phenyl)acrylic acid]",403 nM,12%,380 nM,,
"CC(C)c1ccccc1-c1sc2cc(OC(=O)C(C)(C)C)ccc2c1Oc1ccc(/C=C/C(=O)O)cc1 [Example 135, (E)-3-(4-((2-(2-isopropylphenyl)-6-(pivaloyloxy)benzo[b]thiophen-3-yl)oxy)phenyl)acrylic acid]",,19%,61 nM,,
"CCC(=O)Oc1ccc2c(Oc3ccc(/C=C/C(=O)O)cc3)c(-c3ccccc3C(C)C)sc2c1 [Example 136, (E)-3-(4-((2-(2-isopropylphenyl)-6-(propionyloxy)benzo[b]thiophen-3-yl)oxy)phenyl)acrylic acid]",,11%,5.1 nM,,
"CCOC(=O)/C=C/c1ccc(Oc2c(-c3ccccc3C(C)C)sc3cc(O)ccc23)cc1 [Example 137, (E)-ethyl 3-(4-((6-hydroxy-2-(2-isopropylphenyl)benzo [b]thiophen-3-yl)oxy)phenyl)acrylate]",,15%,9 nM,,
"CC(C)c1ccccc1-c1sc2cc(O)ccc2c1Oc1ccc(/C=C/C(=O)OCCN2CCOCC2)cc1 [Example 138, (E)-2-morpholinoethyl 3-(4-((6-hydroxy-2-(2-isopropylphenyl)benzo [b]thiophen-3-yl)oxy)phenyl)acrylate]",,24%,5.8 nM,,
O=C(O)c1ccc(Oc2c(-c3ccc(O)cc3)sc3cc(O)ccc23)cc1 [reference compound],,,,57 Percentage,10000 nM
O=C(O)CCCc1ccc(Oc2c(-c3ccc(O)cc3)sc3cc(O)ccc23)cc1 [reference compound],,,,55 Percentage,10000 nM
